From article PMC8640046, “Fluorinated rhamnosides inhibit cellular fucosylation” (Nature Communications, 2021) come the findings set out here.

The assay addresses T1, GMDS (GDP-mannose 4,6-dehydratase) (Homo sapiens, UniProt O60547).
T1 construct: recombinant human GMDS with a His-tag (Addgene plasmid # 39152)
T1 sequence (O60547 2-372): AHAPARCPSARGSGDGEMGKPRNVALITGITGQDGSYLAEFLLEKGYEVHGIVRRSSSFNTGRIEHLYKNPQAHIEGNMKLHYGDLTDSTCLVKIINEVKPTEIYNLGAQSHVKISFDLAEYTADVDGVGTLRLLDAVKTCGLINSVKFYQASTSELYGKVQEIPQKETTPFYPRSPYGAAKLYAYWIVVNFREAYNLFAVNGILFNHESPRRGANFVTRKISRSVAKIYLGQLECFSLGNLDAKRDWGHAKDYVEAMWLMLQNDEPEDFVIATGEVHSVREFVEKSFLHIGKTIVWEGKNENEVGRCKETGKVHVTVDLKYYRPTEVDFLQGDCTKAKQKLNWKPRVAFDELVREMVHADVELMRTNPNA
In words: LC-MS and 1H NMR assay of GDP-mannose conversion by recombinant GMDS ([…] enzyme, […] GDP-mannose). The assay is classed as biochemical.

The structures appear in SMILES notation.

Broadly, the IC50 is the concentration at which inhibition is half-maximal. For `Nc1nc2c(ncn2[C@@H]2O[C@H](COP(=O)(O)OP(=O)(O)O[C@H]3O[C@H](C(F)F)[C@@H](O)[C@H](O)[C@@H]3O)[C@@H](O)[C@H]2O)c(=O)[nH]1` [compound 25, GDP-D-Rha6F2], the IC50 was determined as 231 µM.
